# Residues, ends and D or L forms follow the SMILES beside them.
# Key:
# [1] = test system: white and non-white hairs of volunteers; test: In-vivo non-white/white hair ratio by TrichoScan micro-photos; design: species or system human; details: lotion 90 ppm, 18 volunteers, temples, T 4 m
# Protocol: (§1) The in-vivo tests were carried out by applying the hair lotion described above in point 1) in the Galenic part. This lotion comprises 90 ppm of the peptide of the invention. Four independent studies were conducted with a total of 84 volunteers (average age of the entire panel of selected volunteers was 42 years). All four studies were conducted over a wide range of geographical locations, times, seasons, application sites, phototypes and methods. The details are specified in the below table.
# Only one study (at site 2) used this technology (a new tool for analyzing hair growth) which has the advantage of providing data on a very small area and seeing the hair individually. The scalp area is identified and shaved a few days before the photo, and this at different times. Widely used for the study of hair loss, with this technology, thanks to its high magnification, it is also possible to work on hair coloring. The TrichoScan® system includes an epiluminescence microcamera system.
# 2.4—Evaluation of the Number of White Hairs and Non-White Hairs The TrichoScan® software was used to determine the number of white hairs, the number of black hairs and the calculation of the black/white ratio. This ratio increases with the number of dark hairs when the treatment acts.
# [2] = test system: hair follicles (bulb) from a scalp plasty; test: Melanin production in the bulb of isolated hair follicles kept in survival for 8 days; type: cell-based, human; details: 10 ppm
# Protocol: (§2) Follicles comprising their bulb with little pigment and isolated from a scalp plasty (resulting from cosmetic surgery— donor, dark blond; person) are placed individually in the wells of a culture plate containing the culture medium and maintained for survival (37° C.; 5% CO2).
# (§3) Twelve follicles are reserved for T0 to serve as a reference for visual estimation and quantification of pigmentation but also for subsequent labeling of MC1R and MITF by immunohistology (six follicles for each marker).
# (§4) Twelve follicles are placed in contact with the peptide according to the invention at 10 ppm in its solvent and twelve others in contact with the solvent alone for 8 days (0.1% DMSO in culture medium). At 8 days, all the follicles are stopped and fixed, then sectioned (7 μm) and marked with alunated carmine and photographed under a microscope. Sections of 6 of them (for each group) are used for visual and quantitative assessment by image analysis of their pigmentation (with specific filter to measure melanin). Sections of the other 6 are used for MC1R and MITF scoring, which is to be assessed by visual estimation.
# [3] = In-vivo tolerance: adverse effects reported by the volunteers; design: species or system human
# Protocol: as §1
# [4] = test system: Normal human keratinocytes (NHK); test: Microbead (melanosome mimic) phagocytosis by keratinocytes; type: cell-based; details: 24 hours then microbeads 3 hours, vs control
# Protocol: Normal human keratinocytes (NHK) are seeded and cultured until a mat of confluent cells is obtained. The cells are brought into contact with the peptide according to the invention for 24 hours and a solution of fluorescent microbeads mimicking the melanosomes of the melanocyte is added for 3 hours. The beads are phagocytosed (ingested) by the keratinocytes and quantified, after rinsing, by image analysis. In parallel, the cell nuclei are counterstained using the Hoescht33258 fluorescent dye to estimate the cell quantity and to harmonize the data.
# [5] = test system: catalase; test: Catalase activity of the NHM (resorufin reagent); type: cell-based, human; details: 24 h, vs control
# Protocol: NHM almost at confluence are brought into contact with the peptide according to the invention for 24 hours. At the end of this contact, the cells are crushed. The catalase activity extracted from these cells is measured using resorufin reagent. The latter combines with the H2O2 remaining in the reaction well after the action of cellular catalase. A protein assay using bicinchoninic acid (BCA) method is used to estimate the cell quantity to homogenize the obtained data.
# [6] = test system: reduced glutathione (GSH); test: Reduced glutathione of the NHM (fluorescent probe); type: cell-based, human; details: 24 h, vs control
# Protocol: NHM almost at confluence are brought into contact with the peptide according to the invention for 24 hours. After this contact, the cells are broken in an extraction buffer that preserves glutathione. The amount of GSH is determined by a specific fluorescent probe.
# [7] = test system: TYRP1; test: Expression of melanogenesis genes in NHM (qRTPCR): TYRP1; type: cell-based, human; details: 72 h, vs control, n = 4
# Protocol: NHM are cultivated and brought into contact with the peptide according to the invention or its solvent. At the end of 72 h of contact, the melanocytes are crushed, and the mRNAs are recovered, converted into cDNA which are analyzed by qRTPCR, to estimate the changes in the expression level of the mRNAs. The expression of the following genes has been studied: MITF, TYRP1 and CREB.
# [8] = test system: Normal human skin melanocytes (NHM); test: Melanin production by NHM after 10 days; type: cell-based; details: vs control, n = 4
# Protocol: Normal human skin melanocytes (NHM), little or moderately melanin producing are used. These cells are cultured and brought into contact for 10 days with the peptide according to the invention at different concentrations or with its solvent in equivalent concentration (control). Culture media are changed every 2-3 days. After this contact, the cell mats are crushed, and the melanin is extracted from the cells. The melanin quantity is evaluated spectrophotometrically at 490 nm, using a standard range previously established from a melanin solution. Protein assay using the Bicinchoninic Acid (BCA) method is used to estimate the cell quantity to homogenize the obtained data.
# [9] = test system: MC1R; test: MC1R labelling by immunohistology in isolated hair follicles; type: cell-based, human; details: 10 ppm, 8 days
# Protocol: as §2, §3, §4
# [10] = test system: MITF; test: MITF labelling by immunohistology in isolated hair follicles; type: cell-based, human; details: 10 ppm, 8 days; decreases in the control case
# Protocol: as §2, §3, §4
compound,measurement,setting,value
"CCCCCCCCCCCCCCCC(=O)N1CCC[C@H]1C(=O)N1CCC[C@H]1C(=O)O [Pal-PP-OH, palmitoyl-prolyl-proline] (HELM PEPTIDE1{[CCCCCCCCCCCCCCCC(=O)[*:2]].P.P}$$$$V2.0)","non-white/white hair Ratio, Maximum (variation)",[1],+385%
same,"non-white/white hair Ratio, Mean",[1],2.56
same,"non-white/white hair Ratio, respondents",[1],72%
same,"non-white/white hair Ratio, % Variation vs. T0",[1]; listed as peptide according to the invention,approximately +27.4%
same,"non-white/white hair Ratio, % Variation vs. T0",[1]; listed as peptide of the invention,+27.4%
same,"dark pixels corresponding to the deposition of melanin, vs control follicles",[2]; 6 follicles,11.6 times
same,"Melanin, Quantification by image analysis; % area occupied by black pixels","[2]; follicle bulb, vs control, n = 6 follicles",×11.6; p < 0.01
same,negative feedbacks,[3]; 3 months after the last application,no negative feedbacks
same,adverse effects,"[3]; lotion 90 ppm, at 3 or 4 months",No adverse effects were reported
same,"Number of microbeads per image analysis, Variation (%)","[4]; 5 ppm, n = 3",+50%; p < 0.05
same,"Number of microbeads per image analysis, Variation (%)","[4]; 10 ppm, n = 3",+283%; p < 0.01
same,"Number of microbeads per image analysis, Variation (%)","[4]; 10 ppm, n = 3, listed as peptide according to the invention",+283%
same,"Catalase activity, Variation (%)","[5]; 10 ppm, n = 3",+31%; p < 0.01
same,"Catalase activity, Variation (%)","[5]; 12.5 ppm, n = 3",+37%; p < 0.01
same,"Catalase activity, Variation (%)","[5]; 12.5 ppm, n = 3, listed as peptide according to the invention",+37%
same,"Reduced glutathione concentration, Variation (%)","[6]; 10 ppm, n = 6",+28%; p < 0.05
same,"Reduced glutathione concentration, Variation (%)","[6]; 12.5 ppm, n = 6",+38%; p < 0.01
same,"Reduced glutathione concentration, Variation (%)","[6]; 12.5 ppm, n = 6, listed as peptide of the invention",+38%
same,variation in the expression of TYRP1 gene,[7]; 10 ppm,+42%; p < 0.01
same,variation in the expression of TYRP1 gene,[7]; 12.5 ppm,+54%; p < 0.01
same,"Melanin concentration, Variation (%)","[8]; 5 ppm, moderately pigmented (§) NHM",+48%; p < 0.01
same,"Melanin concentration, Variation (%)","[8]; 5 ppm, poorly pigmented (§§) NHM",+4%; nsd
same,"Melanin concentration, Variation (%)","[8]; 10 ppm, moderately pigmented (§) NHM",+123%; p < 0.01
same,"Melanin concentration, Variation (%)","[8]; 10 ppm, poorly pigmented (§§) NHM",+81%; p < 0.01
same,"Melanin concentration, Variation (%)","[8]; 12.5 ppm, moderately pigmented (§) NHM",+223%; p < 0.01
same,"Melanin concentration, Variation (%)","[8]; 12.5 ppm, poorly pigmented (§§) NHM",+113%; p < 0.01
same,"MC1R in the lower sheaths, visual estimation vs control",[9],increased more
same,"MC1R in the bulb, visual estimation compared to T0",[9]; stable in the control case,increased
same,"MITF in the bulb, visual estimation compared to T0",[10],increased

# From patent US20250302720A1, “PEPTIDE-BASED HAIR TREATMENT” (Sederma, priority 2020, published 2025)
